The experiment concerns the target T1, sGC α1/β1 heterodimer (Homo sapiens, UniProt Q02108+Q02153).
T1 construct: expressed in transfected cells; host or cells: CHO-K1 (clone #7, CHO-K1/sGC)
T1 sequence (Q02108 1-690): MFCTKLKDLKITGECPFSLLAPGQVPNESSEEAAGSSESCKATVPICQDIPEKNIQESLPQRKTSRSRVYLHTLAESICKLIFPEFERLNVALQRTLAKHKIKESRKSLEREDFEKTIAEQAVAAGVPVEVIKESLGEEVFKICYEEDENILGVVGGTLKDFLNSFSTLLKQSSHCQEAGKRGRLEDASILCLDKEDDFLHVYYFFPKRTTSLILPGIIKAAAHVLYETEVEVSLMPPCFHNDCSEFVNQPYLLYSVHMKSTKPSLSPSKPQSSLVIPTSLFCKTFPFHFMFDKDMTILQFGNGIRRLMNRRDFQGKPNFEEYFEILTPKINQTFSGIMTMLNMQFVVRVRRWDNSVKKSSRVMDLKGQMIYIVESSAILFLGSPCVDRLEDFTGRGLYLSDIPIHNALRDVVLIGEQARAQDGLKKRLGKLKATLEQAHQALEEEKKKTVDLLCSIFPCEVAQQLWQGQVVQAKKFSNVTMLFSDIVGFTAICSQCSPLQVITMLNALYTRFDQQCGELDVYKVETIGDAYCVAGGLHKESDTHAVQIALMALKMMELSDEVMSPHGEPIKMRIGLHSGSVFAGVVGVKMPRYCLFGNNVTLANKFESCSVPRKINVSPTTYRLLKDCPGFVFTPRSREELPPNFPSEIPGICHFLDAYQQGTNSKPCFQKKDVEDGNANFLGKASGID
T1 sequence (Q02153 1-619): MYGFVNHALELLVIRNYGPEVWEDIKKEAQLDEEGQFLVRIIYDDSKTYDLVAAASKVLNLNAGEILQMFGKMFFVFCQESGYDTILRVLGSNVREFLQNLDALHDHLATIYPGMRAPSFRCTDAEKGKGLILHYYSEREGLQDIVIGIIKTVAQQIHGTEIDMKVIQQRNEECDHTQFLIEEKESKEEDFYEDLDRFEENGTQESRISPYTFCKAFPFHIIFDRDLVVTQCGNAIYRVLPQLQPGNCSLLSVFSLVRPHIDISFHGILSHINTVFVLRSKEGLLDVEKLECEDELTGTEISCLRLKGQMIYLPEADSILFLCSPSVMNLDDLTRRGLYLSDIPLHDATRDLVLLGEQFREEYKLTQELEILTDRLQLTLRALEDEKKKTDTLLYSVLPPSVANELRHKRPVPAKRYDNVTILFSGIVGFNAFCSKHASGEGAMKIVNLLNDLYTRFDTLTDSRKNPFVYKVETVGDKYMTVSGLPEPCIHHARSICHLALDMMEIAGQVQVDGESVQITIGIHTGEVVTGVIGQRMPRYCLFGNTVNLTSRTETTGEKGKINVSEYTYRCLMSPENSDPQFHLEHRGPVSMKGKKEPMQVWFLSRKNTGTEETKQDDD
The experiment can be described thus: Cell-based sGC functional assay (CASA assay): cGMP generation in CHO-K1/sGC cells, HTRF detection. As to conditions: for Emax: CHO-K1, percent activation relative to standard Compound A in CHO-K1/sGC cells, read-out: % Act.; for EC50: inflection point (IP) of cGMP generation in CHO-K1/sGC cells, 4P fit, activity expressed as percentage of Compound A. The gist of the method:
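cGMP was quantified by HTRF after 1 hr, 37° C exposure of thawed CHO-K1 cells expressing sGC α1/β1 to compound, with or without 1 μM DETA-NO. IBMX (0.5 mM) blocked cGMP breakdown, and DMSO was 2.5% final. Percent of standard Compound A's maximal cGMP was fitted (4P) for inflection point.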
Background: TR-FRET usually uses a lanthanide donor and a delayed reading to cut background.

Here are results for 18 molecules from patent US9796733B2, “Imidazo-pyrazine derivatives useful as soluble guanylate cyclase activators” (Merck Sharp & Dohme Corp., priority 2014, dated 2017).

Broadly, the EC50 is the concentration that produces a half-maximal response. Low readings indicate higher potency in that assay, high ones lower potency in that assay. `CCC1(c2ccc(F)cc2)C(=O)Nc2nc(-c3cn4c(F)cnc4c(CCC(F)(F)C(F)(F)F)n3)nc(N)c21` (stereo not drawn) [Example 276A, 4-Amino-5-ethyl-2-(3-fluoro-8-(3,3,4,4,4-pentafluorobutyl)imidazo[1,2-a]pyrazin-6-yl)-5-(4-fluorophenyl)-5H-pyrrolo[2,3-d]pyrimidin-6(7H)-one]: the Emax came out at 80% and a half-maximal response (EC50) required 22 nM.

With `CC1(c2ccc(Cl)cc2)C(=O)Nc2nc(-c3cn4ccnc4cn3)nc(N3CCC(C(F)(F)F)CC3)c21` (stereo not drawn) [Example 280A, 5-(4-chlorophenyl)-2-(imidazo[1,2-a]pyrazin-6-yl)-5-methyl-4-(4-(trifluromethyl)piperdin-1-yl)-5H-pyrrolo[2,3-d]pyrimidin-6(7H)-one], the Emax amounted to 102% and a half-maximal effect (EC50) was put at 124 nM.

For the molecule `CC1(c2ccc(Cl)cc2)C(=O)Nc2nc(-c3cn4ccnc4cn3)nc(N3CC(F)(C4CC4)C3)c21` (stereo not drawn) [Example 281A, 5-(4-chlorophenyl)-4-(3-cyclopropyl-3-fluoroazetidin-1-yl)-2-(imidazo[1,2-a]pyrazin-6-yl)-5-methyl-5H-pyrrolo[2,3-d]pyrimidin-6(7H)-one], the Emax was determined as 120% and the EC50 stood at 102 nM.

Regarding `CC1(c2ccc(Cl)cc2)C(=O)Nc2nc(-c3cn4ccnc4cn3)nc(N3CC(C(F)(F)F)C3)c21` (stereo not drawn) [Example 282A, 5-(4-chlorophenyl)-2-(imidazo[1,2-a]pyrazin-6-yl)-5-methyl-4-(3-(trifluromethyl)azetidin-1-yl)-5H-pyrrolo[2,3-d]pyrimidin-6(7H)-one], the Emax was 153% and a half-maximal effect (EC50) was put at 197 nM.

As for `CC1(c2ccc(Cl)cc2)C(=O)Nc2nc(-c3cn4ccnc4cn3)nc(NCC3CC3)c21` (stereo not drawn) [Example 283A, 5-(4-chlorophenyl)-4-((cyclopropylmethyl)amino)-2-(imidazo[1,2-a]pyrazin-6-yl)-5-methyl-5H-pyrrolo[2,3-d]pyrimidin-6(7H)-one], the Emax amounted to 163% and the EC50 came out at 56 nM.

As to `CC1(F)CN(c2nc(-c3cn4ccnc4cn3)nc3c2C(C)(c2ccc(Cl)cc2)C(=O)N3)C1` (stereo not drawn) [Example 284A, 5-(4-chlorophenyl)-4-(3-fluoro-3-methylazetidin-1-yl)-2-(imidazo[1,2-a]pyrazin-6-yl)-5-methyl-5H-pyrrolo[2,3-d]pyrimidin-6(7H)-one], the Emax was 120% and the EC50 worked out at 102 nM.

For `CC1(c2ccc(Cl)cc2)C(=O)Nc2nc(-c3cn4ccnc4cn3)nc(NCCCC(F)(F)F)c21` (stereo not drawn) [Example 285A, 5-(4-chlorophenyl)-2-(imidazo[1,2-a]pyrazin-6-yl)-5-methyl-4-((4,4,4-trifluorobutyl)amino)-5H-pyrrolo[2,3-d]pyrimidin-6(7H)-one], the Emax stood at 130% and the EC50 stood at 20 nM.

Consider `CC1(c2ccc(Cl)cc2)C(=O)Nc2nc(-c3cn4ccnc4cn3)nc(NC3CC(F)(F)C3)c21` (stereo not drawn) [Example 287A, 5-(4-chlorophenyl)-4-((3,3-difluorocyclobutyl)amino)-2-(imidazo[1,2-a]pyrazin-6-yl)-5-methyl-5H-pyrrolo[2,3-d]pyrimidin-6(7H)-one], for which the Emax was 133% and a half-maximal effect (EC50) was put at 376 nM.

With `CC1(c2ccc(Cl)cc2)C(=O)Nc2nc(-c3cn4ccnc4cn3)nc(NCC(F)(F)F)c21` (stereo not drawn) [Example 288A, 5-(4-chlorophenyl)-2-(imidazo[1,2-a]pyrazin-6-yl)-5-methyl-4-((2,2,2-trifluoroethyl)amino)-5H-pyrrolo[2,3-d]pyrimidin-6(7H)-one], the Emax was found to be 119% and the EC50 was 12 nM.

With `CC1(c2ccc(Cl)cc2)C(=O)Nc2nc(-c3cn4ccnc4cn3)nc(NCCC(F)(F)F)c21` (stereo not drawn) [Example 289A, 5-(4-chlorophenyl)-2-(imidazo[1,2-a]pyrazin-6-yl)-5-methyl-4-((3,3,3-trifluoropropyl)amino)-5H-pyrrolo[2,3-d]pyrimidin-6(7H)-one], the Emax amounted to 106% and it took 289 nM to reach a half-maximal effect (EC50).

Turning to `CN(C)c1nc(-c2cn3ccnc3c(CCC(F)(F)C(F)(F)F)n2)nc2c1C(C)(c1ccc(F)cn1)C(=O)N2` (stereo not drawn) [Example 291B, 4-(dimethylamino)-5-(5-fluoropyridin-2-yl)-5-methyl-2-(8-(3,3,4,4,4-pentafluorobutyl)imidazo[1,2-a]pyrazin-6-yl)-5H-pyrrolo[2,3-d]pyrimidin-6(7H)-one], the Emax was 126% and the response was half-maximal at 786 nM (EC50).

Consider `CC1(c2ccc(F)cn2)C(=O)Nc2nc(-c3cn4ccnc4c(CCC(F)(F)C(F)(F)F)n3)nc(NC3CC3)c21` (stereo not drawn) [Example 292B, 4-(cyclopropylamino)-5-(5-fluoropyridin-2-yl)-5-methyl-2-(8-(3,3,4,4,4-pentafluorobutyl)imidazo[1,2-a]pyrazin-6-yl)-5H-pyrrolo[2,3-d]pyrimidin-6(7H)-one], for which the Emax was determined as 148% and the EC50 was determined as 951 nM.

For the molecule `COCCNc1nc(-c2cn3ccnc3c(CCC(F)(F)C(F)(F)F)n2)nc2c1C(C)(c1ccc(F)cn1)C(=O)N2` (stereo not drawn) [Example 293B, 5-(5-fluoropyridin-2-yl)-4-((2-methoxyethyl)amino)-5-methyl-2-(8-(3,3,4,4,4-pentafluorobutyl)imidazo[1,2-a]pyrazin-6-yl)-5H-pyrrolo[2,3-d]pyrimidin-6(7H)-one], the Emax turned out to be 107% and the EC50 is 509 nM.

For the molecule `CC1(c2ccc(F)cn2)C(=O)Nc2nc(-c3cn4ccnc4c(CCC(F)(F)C(F)(F)F)n3)nc(N3CCOCC3)c21` (stereo not drawn) [Example 294B, 5-(5-fluoropyridin-2-yl)-5-methyl-4-morpholino-2-(8-(3,3,4,4,4-pentafluorobutyl)imidazo[1,2-a]pyrazin-6-yl)-5H-pyrrolo[2,3-d]pyrimidin-6(7H)-one], the Emax amounted to 89% and the EC50 was found to be 444 nM.

`CN1CCN(c2nc(-c3cn4ccnc4c(CCC(F)(F)C(F)(F)F)n3)nc3c2C(C)(c2ccc(F)cn2)C(=O)N3)CC1` (stereo not drawn) [Example 295B, 5-(5-fluoropyridin-2-yl)-5-methyl-4-(4-methylpiperazin-1-yl)-2-(8-(3,3,4,4,4-pentafluorobutyl)imidazo[1,2-a]pyrazin-6-yl)-5H-pyrrolo[2,3-d]pyrimidin-6(7H)-one]: the Emax worked out at 96% and the EC50 is 671 nM.

With `COCCNc1nc(-c2cn3ccnc3c(CCC(F)(F)F)n2)nc2c1C(C)(c1ccc(Cl)cc1)C(=O)N2` (stereo not drawn) [Example 296A, 5-(4-chlorophenyl)-4-((2-methyoxyethyl)amino)-5-methyl-2-(8-(3,3,3-trifluoropropyl)imidazo[1,2-a]pyrazin-6-yl)-5H-pyrrolo[2,3-d]pyrimidin-6(7H)-one], the Emax amounted to 77% and the EC50 came to 142 nM.

With `CC1(c2ccc(Cl)cc2)C(=O)Nc2nc(-c3cn4ccnc4c(CCC(F)(F)F)n3)nc(N3CCOCC3)c21` (stereo not drawn) [Example 297A, 5-(4-chlorophenyl)-5-methyl-4-morpholino-2-(8-(3,3,3-trifluoropropyl)imidazo[1,2-a]pyrazin-6-yl)-5H-pyrrolo[2,3-d]pyrimidin-6(7H)-one], the Emax is 101% and it took 466 nM to reach a half-maximal effect (EC50).

Turning to `CCOC(=O)CCNc1nc(-c2cn3ccnc3c(CCC(F)(F)F)n2)nc2c1C(C)(c1ccc(Cl)cc1)C(=O)N2` (stereo not drawn) [Example 298A, ethyl 3-((5-(4-chlorophenyl)-5-methyl-6-oxo-2-(8-(3,3,3-trifluoropropyl)imidazo[1,2-a]pyrazin-6-yl)-6,7-dihydro-5H-pyrrolo[2,3-d]pyrimidin-4-yl)amino)propanoate], the Emax came to 114% and the EC50 turned out to be 121 nM.
